Experiments:
[1] = target: T1, purified wild type MGL (wt-MGLL 6H-11-313) (Homo sapiens, UniProt Q99685); assay: MGL enzyme activity assay (4MU-B cleavage), wild type MGL; type: biochemical; conditions: wild type MGL 5 nM, 4MU-B 10 μM, 37° C.; read-out: MGL wild type inh IC50
T1 construct: purified wild type MGL (wt-MGLL 6H-11-313)
T1 sequence (Q99685 1-303): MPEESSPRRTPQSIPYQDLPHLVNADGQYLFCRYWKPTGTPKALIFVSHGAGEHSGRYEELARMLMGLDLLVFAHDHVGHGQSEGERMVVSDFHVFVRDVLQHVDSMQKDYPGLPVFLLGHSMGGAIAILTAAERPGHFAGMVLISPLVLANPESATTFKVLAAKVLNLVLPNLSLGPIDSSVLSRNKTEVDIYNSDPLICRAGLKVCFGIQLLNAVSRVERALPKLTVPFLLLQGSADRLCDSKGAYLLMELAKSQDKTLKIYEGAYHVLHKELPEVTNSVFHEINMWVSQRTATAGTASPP
In short: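 Enzyme in 20 mM PIPES pH 7.0, 150 mM NaCl, 0.001% Tween 20 with 4MU-B at 10 μM final and MGL at 5 nM final; compounds 17 to 0.0003 μM final, enzyme added last. Fluorescence (ex 335/em 440 nm) followed at 37° C for 5 min; IC50 from fit of fractional activity versus inhibitor concentration.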

[2] = test system: MGL (rat brain homogenate); assay: 2-AG accumulation assay in rat brain homogenate; type: biochemical; conditions: compound 1 μM, percent of vehicle 2-AG accumulation
Experimental: After a 15-min incubation time at 37° C., CaCl2 (final concentration=10 mM) was added and then incubated for 15 min at 37° C. in a total volume of 5 mL. The reactions were stopped with 6 mL organic solvent extraction solution of 2:1 chloroform/methanol. Accumulated 2-AG in the organic phase was measured by a HPLC/MS method, according to the following equation: percent vehicle=(2-AG accumulation in the presence of compound/2-AG accumulation in vehicle)×100.

Cn1cc(-c2cccc(C(F)(F)F)c2)c2ccc(C(=O)N3CC(N[C@H]4CCN(C(=O)c5ccccc5)C4)C3)cc21 [Cpd 166, (3S)-N-[1-({1-Methyl-3-[3-(trifluoromethyl)phenyl]-1H-indol-6-yl}carbonyl)azetidin-3-yl]-1-(phenylcarbonyl)pyrrolidin-3-amine]
IC50 [1]: 49.8 nM
Rat Brain 2AG % VehCntrl (%) @1 μM [2]: 322%

O=C(c1cscn1)N1CC[C@H](NC2CN(C(=O)c3sc4cc(-c5ccc(C(F)(F)F)cc5)ccc4c3Cl)C2)C1 [Cpd 151, (3S)-N-[1-({3-Chloro-6-[4-(trifluoromethyl)phenyl]-1-benzothiophen-2-yl}carbonyl)azetidin-3-yl]-1-(1,3-thiazol-4-ylcarbonyl)pyrrolidin-3-amine]
IC50 [1]: < 5 nM
Rat Brain 2AG % VehCntrl (%) @1 μM [2]: 495%

O=C(c1nccs1)N1CC[C@H](NC2CN(C(=O)c3sc4cc(-c5ccccc5)ccc4c3Cl)C2)C1 [Cpd 146, (3S)-N-{1-[(3-Chloro-6-phenyl-1-benzothiophen-2-yl)carbonyl]azetidin-3-yl}-1-(1,3-thiazol-2-ylcarbonyl)pyrrolidin-3-amine]
IC50 [1]: < 5 nM
Rat Brain 2AG % VehCntrl (%) @1 μM [2]: 680%

O=C(c1nccs1)N1CC[C@H](NC2CN(C(=O)c3sc4cc(-c5ccccc5)ccc4c3C(F)(F)F)C2)C1 [Cpd 208, (3S)-N-(1-{[6-Phenyl-3-(trifluoromethyl)-1-benzothiophen-2-yl]carbonyl}azetidin-3-yl)-1-(1,3-thiazol-2-ylcarbonyl)pyrrolidin-3-amine]
IC50 [1]: 13.4 nM
Rat Brain 2AG % VehCntrl (%) @1 μM [2]: 359%

O=C(c1cc2ccc(C(F)(F)F)cc2s1)N1CC(N[C@H]2CCN(C(=O)c3nccs3)C2)C1 [Cpd 138, (3S)-1-(1,3-Thiazol-2-ylcarbonyl)-N-(1-{[6-(trifluoromethyl)-1-benzothiophen-2-yl]carbonyl}azetidin-3-yl)pyrrolidin-3-amine]
IC50 [1]: 16 nM
Rat Brain 2AG % VehCntrl (%) @1 μM [2]: 340%

O=C(c1nccs1)N1CC[C@H](NC2CN(C(=O)c3sc4ccc(-c5ccc(C(F)(F)F)cc5)cc4c3F)C2)C1 [Cpd 174, (3S)-N-[1-({3-Fluoro-5-[4-(trifluoromethyl)phenyl]-1-benzothiophen-2-yl}carbonyl)azetidin-3-yl]-1-(1,3-thiazol-2-ylcarbonyl)pyrrolidin-3-amine]
IC50 [1]: 10 nM
Rat Brain 2AG % VehCntrl (%) @1 μM [2]: 791%

O=C(c1ccccc1)N1CC[C@H](NC2CN(C(=O)c3sc4ccc(-c5ccc(C(F)(F)F)cc5)cc4c3F)C2)C1 [Cpd 176, (3S)-N-[1-({3-Fluoro-5-[4-(trifluoromethyl)phenyl]-1-benzothiophen-2-yl}carbonyl)azetidin-3-yl]-1-(phenylcarbonyl)pyrrolidin-3-amine]
IC50 [1]: 6 nM
Rat Brain 2AG % VehCntrl (%) @1 μM [2]: 832%

O=C(c1nccs1)N1CC[C@H](NC2CN(C(=O)c3sc4cc(-c5cccc(C(F)(F)F)c5)ccc4c3Cl)C2)C1 [Cpd 148, (3S)-N-[1-({3-Chloro-6-[3-(trifluoromethyl)phenyl]-1-benzothiophen-2-yl}carbonyl)azetidin-3-yl]-1-(1,3-thiazol-2-ylcarbonyl)pyrrolidin-3-amine]
IC50 [1]: < 5 nM
Rat Brain 2AG % VehCntrl (%) @1 μM [2]: 942%

O=C(c1nccs1)N1CC[C@H](NC2CN(C(=O)c3ccc4c(ccn4-c4ccc(F)cc4)c3F)C2)C1 [Cpd 198, (3S)-N-(1-{[4-Fluoro-1-(4-fluorophenyl)-1H-indol-5-yl]carbonyl}azetidin-3-yl)-1-(1,3-thiazol-2-ylcarbonyl)pyrrolidin-3-amine]
IC50 [1]: < 5 nM
Rat Brain 2AG % VehCntrl (%) @1 μM [2]: 937%

O=C(c1ccc(-c2cccc(C(F)(F)F)c2)cc1)N1CC(N[C@H]2CCN(C(=O)c3nccs3)C2)C1 [Cpd 113, (3S)-1-(1,3-Thiazol-2-ylcarbonyl)-N-(1-{[3′-(trifluoromethyl)biphenyl-4-yl]carbonyl}azetidin-3-yl)pyrrolidin-3-amine]
IC50 [1]: < 5 nM
Rat Brain 2AG % VehCntrl (%) @1 μM [2]: 832%

O=C(c1nccs1)N1CC[C@H](NC2CN(C(=O)c3sc4cc(-c5ccc(C(F)(F)F)cc5)ccc4c3Cl)C2)C1 [Cpd 150, (3S)-N-[1-({3-Chloro-6-[4-(trifluoromethyl)phenyl]-1-benzothiophen-2-yl}carbonyl)azetidin-3-yl]-1-(1,3-thiazol-2-ylcarbonyl)pyrrolidin-3-amine]
IC50 [1]: < 5 nM
Rat Brain 2AG % VehCntrl (%) @1 μM [2]: 759%

O=C(c1ccc2c(ccn2-c2ccc(C(F)(F)F)cc2)c1)N1CC(N[C@H]2CCN(C(=O)c3cscn3)C2)C1 [Cpd 158, (3S)-1-(1,3-Thiazol-4-ylcarbonyl)-N-[1-({1-[4-(trifluoromethyl)phenyl]-1H-indol-5-yl}carbonyl)azetidin-3-yl]pyrrolidin-3-amine]
IC50 [1]: 16 nM
Rat Brain 2AG % VehCntrl (%) @1 μM [2]: 415%

O=C(c1ccc2c(ccn2-c2ccc(C(F)(F)F)cc2)c1)N1CC(N[C@H]2CCN(C(=O)c3ccccc3)C2)C1 [Cpd 154, (3S)-1-(Phenylcarbonyl)-N-[1-({1-[4-(trifluoromethyl)phenyl]-1H-indol-5-yl}carbonyl)azetidin-3-yl]pyrrolidin-3-amine]
IC50 [1]: 13.4 nM
Rat Brain 2AG % VehCntrl (%) @1 μM [2]: 582%

Cc1c(C(=O)N2CC(N[C@H]3CCN(C(=O)c4ccccc4)C3)C2)sc2cc(C(F)(F)F)ccc12 [Cpd 80, (3S)-N-(1-{[3-Methyl-6-(trifluoromethyl)-1-benzothiophen-2-yl]carbonyl}azetidin-3-yl)-1-(phenylcarbonyl)pyrrolidin-3-amine]
IC50 [1]: 22.6 nM
Rat Brain 2AG % VehCntrl (%) @1 μM [2]: 174%

O=C(c1ccc2c(c1)c(F)cn2-c1ccc(F)cc1)N1CC(N[C@H]2CCN(C(=O)c3ccccc3)C2)C1 [Cpd 142, (3S)-N-(1-{[3-Fluoro-1-(4-fluorophenyl)-1H-indol-5-yl]carbonyl}azetidin-3-yl)-1-(phenylcarbonyl)pyrrolidin-3-amine]
IC50 [1]: 56.5 nM
Rat Brain 2AG % VehCntrl (%) @1 μM [2]: 247%

O=C(c1ccc2c(-c3ccc(C(F)(F)F)cc3)c[nH]c2c1)N1CC(N[C@H]2CCN(C(=O)c3ccccc3)C2)C1 [Cpd 101, (3S)-1-(Phenylcarbonyl)-N-[1-({3-[4-(trifluoromethyl)phenyl]-1H-indol-6-yl}carbonyl)azetidin-3-yl]pyrrolidin-3-amine]
IC50 [1]: 44 nM
Rat Brain 2AG % VehCntrl (%) @1 μM [2]: 141%

Cc1c(C(=O)N2CC(N[C@H]3CCN(C(=O)c4cscn4)C3)C2)sc2ccc(-c3ccccc3)cc12 [Cpd 123, (3S)-N-{1-[(3-Methyl-5-phenyl-1-benzothiophen-2-yl)carbonyl]azetidin-3-yl}-1-(1,3-thiazol-4-ylcarbonyl)pyrrolidin-3-amine]
IC50 [1]: < 5 nM
Rat Brain 2AG % VehCntrl (%) @1 μM [2]: 661%

Cc1c(C(=O)N2CC(N[C@H]3CCN(C(=O)c4ccccc4)C3)C2)sc2ccc(-c3cccc(F)c3)cc12 [Cpd 93, (3S)-N-(1-{[5-(3-Fluorophenyl)-3-methyl-1-benzothiophen-2-yl]carbonyl}azetidin-3-yl)-1-(phenylcarbonyl)pyrrolidin-3-amine]
IC50 [1]: < 5 nM
Rat Brain 2AG % VehCntrl (%) @1 μM [2]: 963%

O=C(c1ccccc1)N1CC[C@H](NC2CN(C(=O)c3sc4ccc(-c5ccccc5)cc4c3F)C2)C1 [Cpd 173, (3S)-N-{1-[(3-Fluoro-5-phenyl-1-benzothiophen-2-yl)carbonyl]azetidin-3-yl}-1-(phenylcarbonyl)pyrrolidin-3-amine]
IC50 [1]: < 5 nM
Rat Brain 2AG % VehCntrl (%) @1 μM [2]: 628%

O=C(c1ccc2c(-c3ccc(F)cc3)c[nH]c2c1)N1CC(N[C@H]2CCN(C(=O)c3nccs3)C2)C1 [Cpd 189, (3S)-N-(1-{[3-(4-Fluorophenyl)-1H-indol-6-yl]carbonyl}azetidin-3-yl)-1-(1,3-thiazol-2-ylcarbonyl)pyrrolidin-3-amine]
IC50 [1]: 12.5 nM
Rat Brain 2AG % VehCntrl (%) @1 μM [2]: 277%

O=C(c1ccc(Cc2cccc(C(F)(F)F)c2)cc1)N1CC(N[C@H]2CCN(C(=O)c3cscn3)C2)C1 [Cpd 127, (3S)-1-(1,3-Thiazol-4-ylcarbonyl)-N-[1-({4-[3-(trifluoromethyl)benzyl]phenyl}carbonyl)azetidin-3-yl]pyrrolidin-3-amine]
IC50 [1]: < 5 nM
Rat Brain 2AG % VehCntrl (%) @1 μM [2]: 618%

O=C(c1cc2ccc(-c3cccc(C(F)(F)F)c3)cc2s1)N1CC(N[C@H]2CCN(C(=O)c3nccs3)C2)C1 [Cpd 99, (3S)-1-(1,3-Thiazol-2-ylcarbonyl)-N-[1-({6-[3-(trifluoromethyl)phenyl]-1-benzothiophen-2-yl}carbonyl)azetidin-3-yl]pyrrolidin-3-amine]
IC50 [1]: < 5 nM
Rat Brain 2AG % VehCntrl (%) @1 μM [2]: 644%

O=C(c1cc2cc(-c3ccccc3)ccc2s1)N1CC(N[C@H]2CCN(C(=O)c3nccs3)C2)C1 [Cpd 129, (3S)-N-{1-[(5-Phenyl-1-benzothiophen-2-yl)carbonyl]azetidin-3-yl}-1-(1,3-thiazol-2-ylcarbonyl)pyrrolidin-3-amine]
IC50 [1]: < 5 nM
Rat Brain 2AG % VehCntrl (%) @1 μM [2]: 590%

O=C(c1ccc(-c2ccc(C(F)(F)F)cc2)cc1)N1CC(N[C@H]2CCN(C(=O)c3cscn3)C2)C1 [Cpd 145, (3S)-1-(1,3-Thiazol-4-ylcarbonyl)-N-(1-{[4′-(trifluoromethyl)biphenyl-4-yl]carbonyl}azetidin-3-yl)pyrrolidin-3-amine]
IC50 [1]: 96.4 nM
Rat Brain 2AG % VehCntrl (%) @1 μM [2]: 193%

— patent US8748417B2, “Amino-pyrrolidine-azetidine diamides as monoacylglycerol lipase inhibitors” (Janssen Pharmaceutica, NV, priority 2010, dated 2014)
